# Values of other authors as cited in patent publication US6444681B1, “Methods and compositions for treating Raynaud's Phenomenon and scleroderma” (The Ohio State University Research Foundation, priority 2000, dated 2002).
# pKd: −log10 of the molar value.
# Target: T1, α-2A (Homo sapiens, UniProt P08913)
# T1 sequence (P08913 1-465): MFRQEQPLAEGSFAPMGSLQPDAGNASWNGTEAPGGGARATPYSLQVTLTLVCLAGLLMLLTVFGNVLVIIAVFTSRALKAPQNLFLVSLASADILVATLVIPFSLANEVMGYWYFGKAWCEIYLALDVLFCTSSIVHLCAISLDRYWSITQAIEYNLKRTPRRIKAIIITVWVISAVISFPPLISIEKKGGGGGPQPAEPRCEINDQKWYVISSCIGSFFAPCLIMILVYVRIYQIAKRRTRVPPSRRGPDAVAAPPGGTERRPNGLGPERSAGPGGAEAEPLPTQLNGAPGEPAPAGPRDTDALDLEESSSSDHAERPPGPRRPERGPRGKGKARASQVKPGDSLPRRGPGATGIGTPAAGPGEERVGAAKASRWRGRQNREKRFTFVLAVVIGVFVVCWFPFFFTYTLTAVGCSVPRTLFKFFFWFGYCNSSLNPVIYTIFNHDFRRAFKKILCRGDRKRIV
# Details: cited from earlier work
structure (smiles),measurement,value
CN1CCC2(CCN3CCc4c(oc5ccccc45)C3C2)N(C)C1=O (stereo not shown) [MK 912],pKd,8.74
